Assay results taken from US12396961B2, “Compounds and compositions for intracellular delivery of agents” (ModernaTX, Inc., priority 2015, dated 2025).

What was measured:
[1] = Particle size and polydispersity index (Zetasizer Nano ZS); format: physicochemical; conditions: Table 1; for PDI: DOPE 40:20:38.5:1.5, Luc mRNA
Summary of the method: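 Particle size and polydispersity index were measured by dynamic light scattering on a Zetasizer Nano ZS in 1×PBS. Zeta potential was measured in 15 mM PBS.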

hEPO mRNA expression [2] = test: Expression of hEPO after intravenous administration to rats; format: in vivo; conditions: rats, 2 mpk, i.v. (Graph A); in words
Experimental: PBS (phosphate buffered saline) is used as control.
Formulations were prepared according to Table 5 and included mRNA encoding hEPO.
[…] After the 48 hour time point, livers and spleens were harvested and frozen.

[3] = system: luciferase (Luc) mRNA expression; test: Luc expression (AUC) in CD-1 mice relative to MC3; format: in vivo
Summary of the method: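 CD-1 mice dosed at 0.5 mpk with nanoparticle compositions carrying luciferase mRNA; total light flux acquired by whole-body luminescent imaging 6 h after administration. Expression referenced to MC3-containing composition.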

LDL-c = test: LDL (LDL-c) levels in LDLr−/− mice after mRNA encoding the LDL receptor; format: in vivo, LDLR knockout mice; conditions: Compound 11 at 0.5 and 1 mpk
rats = test: Tolerability / toxicity in rats dosed i.v. with hEPO mRNA LNP; format: in vivo; conditions: 2 mg/kg dose
[4] = system: LDLr mRNA / Luc expression; test: Expression (AUC) in LDLr−/− mice relative to KL22; format: in vivo; conditions: Table 7b
[5] = Lipid levels (clearance) in liver and spleen 48 hours after administration; format: in vivo, rats; conditions: rat liver, 48 h
Experimental: Formulations were administered intravenously to rats (n=3 or 6) at a dosage of 0.2 mg/kg or 0.5 mg/kg (mpk) and hEPO levels measured at 3, 6, and 24 hour time points. After the 48 hour time point, livers and spleens were harvested and frozen.
The amount of lipid in the liver and spleen 48 hours after administration of a nanoparticle composition was also measured. […] In contrast, approximately 60% of doses including MC3 or Compound 22 remained in the liver after 48 hours. Less than 3% of the dose remained in the spleen for each composition tested.

hEPO mRNA expression [6] = test: hEPO levels in non-human primates; format: in vivo
Experimental: FIG. 10 is a graph showing hEPO levels in non-human primates up to −50 h after administration of a nanoparticle composition containing Compound 4, compared to a composition containing MC3.
The tolerability and efficacy of nanoparticle compositions to non-human primates is evaluated in Cynomolgus monkeys. Monkeys are administered an optimized nanoparticle composition including an mRNA encoding hEPO once weekly for four weeks. The levels of hEPO protein, mRNA, and cytokine profiles are measured using ELISA-based techniques before and 2, 6, 12, 24, 48, 72, and 120 hours after each administration.

[7] = system: GFP mRNA expression in liver cells; test: Mouse liver immunohistochemistry (IHC) of GFP after GFP mRNA LNP; format: in vivo, CD-1 mouse; LDLR knockout mouse; conditions: i.v. 0.5 mpk; MC3: CD-1 mouse, 6h; Compound 4: LDLR knockout mouse, 8h
Experimental: FIG. 11 is a pair of images comparing the results of a mouse liver immunohistochemistry (IHC) using mRNA expressing green fluorescent protein (GFP) after administration of nanoparticle compositions containing Compound 4 and MC3.
FIG. 16 is a graph showing GFP levels in the livers of LDLR knockout mice at 30 min to 24 h after intravenous administration of an eGFP RNA in a lipid composition containing Compound 4. The liver GFP levels were determined via IHC. The square markers represent the number of GFP positive cells following administration of a dose of 0.1 mpk of the composition. The circular markers represent the number of GFP positive cells following administration of a dose of 0.5 mpk of the composition.

[8] = Encapsulation efficiency of RNA (QUANT-IT RIBOGREEN RNA assay); format: physicochemical
Description: The efficiency of encapsulation of a therapeutic and/or prophylactic agent describes the amount of therapeutic and/or prophylactic agent that is encapsulated or otherwise associated with a nanoparticle composition after preparation, relative to the initial amount provided. The encapsulation efficiency is desirably high (e.g., close to 100%). The encapsulation efficiency may be measured, for example, by comparing the amount of therapeutic and/or prophylactic agent in a solution containing the nanoparticle composition before and after breaking up the nanoparticle composition with one or more organic solvents or detergents. Fluorescence may be used to measure the amount of free therapeutic and/or prophylactic agent (e.g., RNA) in a solution. […]
For nanoparticle compositions including an RNA, a QUANT-IT™ RIBOGREEN® RNA assay (Invitrogen Corporation Carlsbad, CA) can be used to evaluate the encapsulation of an RNA by the nanoparticle composition. […] The fluorescence intensity can be measured using a fluorescence plate reader (Wallac Victor 1420 Multilablel Counter; Perkin Elmer, Waltham, MA) at an excitation wavelength of, for example, about 480 nm and an emission wavelength of, for example, about 520 nm. […]

For CCCCCCCCCCCCN(CCCCCCCCCCCC)CCN(CCCCCCCCCCCC)CC(=O)N1CCN(C(=O)CN(CCCCCCCCCCCC)CCCCCCCCCCCC)CC1 [Compound 11, 2-(Didodecylamino)-1-(4-(N-(2-(didodecylamino)ethyl)-N-dodecylglycyl)piperazin-1-yl)ethan-1-one], the PDI [1] was 0.099, the “hEPO expression in rats (FIG. 8)” value (hEPO mRNA expression [2]) was “comparable to MC3” and the “Lipid/MC3 Luc CD-1 (mice)” value ([3]; Luc expression relative to MC3, CD-1 mice) was 1.03. For the same compound, the “LDL-c levels in LDLR knockout mice (FIG. 9B)” value (LDL-c) was “found to drop” and the “Tolerability / toxicity in rats (FIG. 8)” value (rats) was “improved tolerability as compared to KL22”.

With CCCCCCCCCN(CCCCCCCCC)CCN(CCCCCCCCC)CC(=O)N1CCN(C(=O)CN(CCCCCCCCC)CCCCCCCCC)CC1 [Compound 4, 2-(Dinonylamino)-1-(4-(N-(2-(dinonylamino)ethyl)-N-nonylglycyl)piperazin-1-yl)ethan-1-one] the PDI [1] was 0.120, the “Lipid/MC3 AUC CD-1 mice 0.5 mpk” value ([3]; Table 7b, Luc expression, CD-1 mice, 0.5 mpk) was 3.70 and the “Lipid/KL22 AUC LDLr−/− mice 0.5 mpk, LDLr” value [4] was 2.03. For the same compound, the “% dose remaining Rat liver (48 h)” value [5] was 37.82%, the “hEPO expression compared to MC3 (FIG. 10)” value (hEPO mRNA expression [6]) was 3 fold and the “GFP protein expression in liver cell types (IHC, FIG. 11)” value [7] was “less protein expression in Kupffer cells”.

With CCCCC/C=C\CCCCCN(CCCCC/C=C\CCCCC)CCN1CCN(CCN(CCCCCCCCCCCC)CCN(CCCCCCCCCCCC)CCCCCCCCCCCC)CC1 [Compound 25, N^1-(2-(4-(2-(Di((Z)-dodec-6-en-1-yl)amino)ethyl)piperazin-1-yl)ethyl)-N^1,N^2,N^2-tridodecylethane-1,2-diamine] the “Size (nm)” value ([1]; lipid:DOPE:Chol:PEG-DMG 40:20:38.5:1.5, Luc mRNA, MC3 standard formulation) was 90.0 nm and the “EE (%)” value ([8]; Table 1, DOPE 40:20:38.5:1.5, Luc mRNA) was 97.0%.

For CCCCCCCCCCCCN(CCCCCCCCCCCC)CCN1CCN(C(=O)CN(CCCCCCCCCCCC)CCN(CCCCCCCCCCCC)CCCCCCCCCCCC)CC1 [Compound 2, 2-((2-(Didodecylamino)ethyl)(dodecyl)amino)-1-(4-(2-(didodecylamino)ethyl)piperazin-1-yl)ethan-1-one], the “EE (%)” value ([8]; Table 1, marked *: lipid:DSPC:Chol:PEG-DMG 50:10:38.5:1.5) was 96%.
